Reference: ChEMBL document CHEMBL5725273, “Thienopyranones as kinase and epigenetic inhibitors” (2016)

What was measured:
[1] = molecular target: Phosphatidylinositol 4,5-bisphosphate 3-kinase catalytic subunit alpha isoform (Homo sapiens, UniProt P42336); assay: (§1) Inhibition Assay: Several TP Scaffold compounds were tested for inhibition activity against isoforms of PI3K (alpha, beta, gamma, and delta isoforms) and the bromodomain protein BRD4 at regions 1 (BRD4-1) and 2 (BRD4-2).
[2] = molecular target: Bromodomain-containing protein 4 (Homo sapiens, UniProt O60885); assay: as §1
[3] = molecular target: T1, Phosphatidylinositol 4,5-bisphosphate 3-kinase catalytic subunit delta isoform (Homo sapiens, UniProt O00329); assay: as §1
T1 sequence (O00329 whole entry): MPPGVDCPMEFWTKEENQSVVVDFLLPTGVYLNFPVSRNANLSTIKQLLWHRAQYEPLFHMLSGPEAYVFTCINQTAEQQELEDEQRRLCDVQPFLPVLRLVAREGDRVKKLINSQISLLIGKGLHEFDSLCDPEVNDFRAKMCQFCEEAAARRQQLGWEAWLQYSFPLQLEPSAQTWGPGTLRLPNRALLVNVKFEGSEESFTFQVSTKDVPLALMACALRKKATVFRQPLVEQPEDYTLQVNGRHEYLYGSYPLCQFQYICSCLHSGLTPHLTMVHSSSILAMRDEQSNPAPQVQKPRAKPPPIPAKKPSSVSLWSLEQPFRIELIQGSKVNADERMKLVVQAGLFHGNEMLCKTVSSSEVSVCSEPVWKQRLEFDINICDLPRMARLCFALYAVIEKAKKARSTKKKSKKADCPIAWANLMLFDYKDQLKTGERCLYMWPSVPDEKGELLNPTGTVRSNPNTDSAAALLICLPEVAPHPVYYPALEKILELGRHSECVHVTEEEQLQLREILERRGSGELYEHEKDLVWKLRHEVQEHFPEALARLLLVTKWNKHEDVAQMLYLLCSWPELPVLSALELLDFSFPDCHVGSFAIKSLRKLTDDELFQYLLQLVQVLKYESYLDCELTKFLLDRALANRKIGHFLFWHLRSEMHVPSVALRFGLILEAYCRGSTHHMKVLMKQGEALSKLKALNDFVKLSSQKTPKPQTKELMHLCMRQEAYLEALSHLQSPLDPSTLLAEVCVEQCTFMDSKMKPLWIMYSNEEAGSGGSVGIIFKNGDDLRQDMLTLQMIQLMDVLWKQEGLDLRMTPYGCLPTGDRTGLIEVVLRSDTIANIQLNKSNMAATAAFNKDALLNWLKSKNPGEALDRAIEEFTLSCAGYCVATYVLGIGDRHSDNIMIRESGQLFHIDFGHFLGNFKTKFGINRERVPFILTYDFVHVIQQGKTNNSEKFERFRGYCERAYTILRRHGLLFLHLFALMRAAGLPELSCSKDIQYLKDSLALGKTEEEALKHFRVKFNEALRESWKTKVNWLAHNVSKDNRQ

[4] = molecular target: Phosphatidylinositol 4,5-bisphosphate 3-kinase catalytic subunit gamma isoform (Homo sapiens, UniProt P48736); assay: as §1
Chain of Phosphatidylinositol 4,5-bisphosphate 3-kinase catalytic subunit gamma isoform (P48736 whole entry, canonical isoform): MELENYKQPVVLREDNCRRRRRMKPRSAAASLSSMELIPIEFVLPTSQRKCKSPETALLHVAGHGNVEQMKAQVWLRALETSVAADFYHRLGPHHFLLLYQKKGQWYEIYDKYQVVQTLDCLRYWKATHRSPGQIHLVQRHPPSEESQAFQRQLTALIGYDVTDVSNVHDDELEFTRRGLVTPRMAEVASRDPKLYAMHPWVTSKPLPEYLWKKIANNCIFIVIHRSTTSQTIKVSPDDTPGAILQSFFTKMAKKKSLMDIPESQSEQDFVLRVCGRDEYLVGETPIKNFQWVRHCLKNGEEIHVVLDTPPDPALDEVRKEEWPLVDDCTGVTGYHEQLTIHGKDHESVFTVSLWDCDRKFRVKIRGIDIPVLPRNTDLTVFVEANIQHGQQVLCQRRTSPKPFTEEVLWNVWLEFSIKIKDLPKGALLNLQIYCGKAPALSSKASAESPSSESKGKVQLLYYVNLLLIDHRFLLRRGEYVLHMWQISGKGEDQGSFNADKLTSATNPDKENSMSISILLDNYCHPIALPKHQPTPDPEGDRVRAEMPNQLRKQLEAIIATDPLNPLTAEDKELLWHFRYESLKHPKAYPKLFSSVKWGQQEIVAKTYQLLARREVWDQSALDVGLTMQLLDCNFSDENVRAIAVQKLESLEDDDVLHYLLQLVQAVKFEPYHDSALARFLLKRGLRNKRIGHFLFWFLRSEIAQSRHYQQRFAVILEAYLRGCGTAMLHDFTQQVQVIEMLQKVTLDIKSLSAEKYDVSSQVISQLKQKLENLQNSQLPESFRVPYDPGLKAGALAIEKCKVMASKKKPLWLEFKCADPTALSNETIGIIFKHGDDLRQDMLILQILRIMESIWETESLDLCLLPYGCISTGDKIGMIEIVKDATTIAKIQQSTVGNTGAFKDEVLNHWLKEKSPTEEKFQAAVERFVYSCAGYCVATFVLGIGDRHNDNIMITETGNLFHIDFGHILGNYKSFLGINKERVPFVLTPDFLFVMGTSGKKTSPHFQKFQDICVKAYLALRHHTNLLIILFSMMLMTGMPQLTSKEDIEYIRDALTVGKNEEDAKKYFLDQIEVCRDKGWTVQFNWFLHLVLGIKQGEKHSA

Chain of Phosphatidylinositol 4,5-bisphosphate 3-kinase catalytic subunit alpha isoform (P42336 whole entry, canonical isoform): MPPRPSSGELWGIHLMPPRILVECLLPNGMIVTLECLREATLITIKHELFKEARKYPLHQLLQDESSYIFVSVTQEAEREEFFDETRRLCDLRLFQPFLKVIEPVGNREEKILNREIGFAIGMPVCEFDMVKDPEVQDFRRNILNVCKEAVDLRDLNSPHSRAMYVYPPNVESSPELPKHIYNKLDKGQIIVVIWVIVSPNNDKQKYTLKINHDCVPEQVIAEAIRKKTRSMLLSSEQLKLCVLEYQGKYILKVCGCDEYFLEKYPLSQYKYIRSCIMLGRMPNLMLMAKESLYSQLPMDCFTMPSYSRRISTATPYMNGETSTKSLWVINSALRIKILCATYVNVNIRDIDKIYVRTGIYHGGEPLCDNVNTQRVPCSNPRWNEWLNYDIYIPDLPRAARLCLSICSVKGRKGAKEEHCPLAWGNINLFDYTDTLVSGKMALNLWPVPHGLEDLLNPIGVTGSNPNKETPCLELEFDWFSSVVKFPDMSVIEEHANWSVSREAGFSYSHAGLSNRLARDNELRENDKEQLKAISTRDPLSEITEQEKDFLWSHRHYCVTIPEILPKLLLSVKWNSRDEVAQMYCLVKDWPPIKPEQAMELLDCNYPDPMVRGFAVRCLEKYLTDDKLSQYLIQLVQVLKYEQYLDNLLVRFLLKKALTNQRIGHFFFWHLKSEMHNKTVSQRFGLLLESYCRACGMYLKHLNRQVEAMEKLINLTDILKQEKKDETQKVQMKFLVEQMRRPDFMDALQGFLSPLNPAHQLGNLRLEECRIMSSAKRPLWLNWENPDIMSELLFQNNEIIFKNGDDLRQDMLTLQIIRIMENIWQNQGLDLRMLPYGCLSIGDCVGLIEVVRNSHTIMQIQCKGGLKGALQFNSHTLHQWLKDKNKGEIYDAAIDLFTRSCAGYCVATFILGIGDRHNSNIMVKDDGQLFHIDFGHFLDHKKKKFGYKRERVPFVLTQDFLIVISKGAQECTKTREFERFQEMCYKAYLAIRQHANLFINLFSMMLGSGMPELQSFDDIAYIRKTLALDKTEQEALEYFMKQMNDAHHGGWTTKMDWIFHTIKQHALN

`CCOC(=O)c1ccc(-c2csc3c(=O)cc(N4CCSCC4)oc23)cc1` was tested, and the IC50 [1] was 29100 nM, the IC50 [2] was 1010 nM and the IC50 [3] was 2490 nM. For the same compound, the IC50 [4] was > 50000 nM.
